# Results as given in PubChem BioAssay (NCI).
#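 Cells were grown in 96-well plates and exposed to each compound for 48 hours at five concentrations; endpoints were interpolated linearly between bracketing concentrations, or set to the highest concentration if not reached. TGI: total growth inhibition.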
# Assays:
# Assay in all cases: DTP human tumour cell line panel, 48 h
# [1] = test system: HOP-62 NSCLC
# [2] = test system: SNB-19 CNS
# [3] = test system: RPMI-8226 leukemia
# [4] = test system: OVCAR-8 ovarian
# [5] = test system: A498 renal
# [6] = test system: CAKI-1 renal
# [7] = test system: NCI-H23 lung
# [8] = test system: EKVX NSCLC
# [9] = test system: MOLT-4 leukemia
# [10] = test system: HOP-92 NSCLC
# [11] = test system: OVCAR-5 ovarian
# [12] = test system: DU-145 prostate
# [13] = test system: MDA-MB-435
# [14] = test system: COLO 205 colon
# [15] = test system: IGROV1 ovarian
# [16] = test system: UO-31 renal
# [17] = test system: HCT-116 colon
# [18] = test system: OVCAR-4 ovarian
# [19] = test system: NCI-H522 lung
# [20] = test system: SK-OV-3 ovarian
# [21] = test system: MCF7 breast
# [22] = test system: HS 578T breast
# [23] = test system: NCI/ADR-RES ovarian
# [24] = test system: T-47D breast
# [25] = test system: SNB-75 CNS
# [26] = test system: CCRF-CEM leukemia
# [27] = test system: SF-268 CNS
# [28] = test system: UACC-257 melanoma
# [29] = test system: BT-549 breast
# [30] = test system: KM12 colon
# [31] = test system: NCI-H226 lung
# [32] = test system: HCC-2998 colon
# [33] = test system: SF-295 CNS
# [34] = test system: SR leukemia
# [35] = test system: SW-620 colon
# [36] = test system: K-562 leukemia
# [37] = test system: MDA-MB-231 breast
# [38] = test system: HT29 colon
# [39] = test system: SK-MEL-28 melanoma
# [40] = test system: UACC-62 melanoma
# [41] = test system: TK-10 renal
# [42] = test system: M14 melanoma
# [43] = test system: U251 CNS
# [44] = test system: SK-MEL-5 melanoma
# [45] = test system: LOX IMVI melanoma
# [46] = test system: HCT-15 colon
# [47] = test system: SF-539 CNS
# [48] = test system: 786-0 renal
# [49] = test system: SN12C renal
# [50] = test system: OVCAR-3 ovarian
# [51] = test system: ACHN renal
# [52] = test system: RXF 393 renal
# [53] = test system: NCI-H460 lung
# [54] = test system: MALME-3M melanoma
# [55] = test system: A549 NSCLC
# [56] = test system: PC-3 prostate
# [57] = test system: HL-60(TB) leukemia
# [58] = test system: SK-MEL-2 melanoma
smiles,measurement,setting,value
C=CC[C@@H]1C=C[C@@H](C(=O)OC)n2c(=O)n(-c3ccccc3)c(=O)n21,TGI,[1],> 100 µM
same,TGI,[2],> 100 µM
same,TGI,[3],> 100 µM
same,TGI,[4],> 100 µM
same,TGI,[5],> 100 µM
same,TGI,[6],> 100 µM
same,TGI,[7],> 100 µM
same,TGI,[8],> 100 µM
same,TGI,[9],> 100 µM
same,TGI,[10],> 100 µM
same,TGI,[11],> 100 µM
same,TGI,[12],> 100 µM
same,TGI,[13],> 100 µM
same,TGI,[14],> 100 µM
same,TGI,[15],> 100 µM
same,TGI,[16],> 100 µM
same,TGI,[17],> 100 µM
same,TGI,[18],> 100 µM
same,TGI,[19],> 100 µM
same,TGI,[20],> 100 µM
same,TGI,[21],> 100 µM
same,TGI,[22],> 100 µM
same,TGI,[23],> 100 µM
same,TGI,[24],> 100 µM
same,TGI,[25],> 100 µM
same,TGI,[26],> 100 µM
same,TGI,[27],> 100 µM
same,TGI,[28],> 100 µM
same,TGI,[29],> 100 µM
same,TGI,[30],> 100 µM
same,TGI,[31],> 100 µM
same,TGI,[32],> 100 µM
same,TGI,[33],> 100 µM
same,TGI,[34],> 100 µM
same,TGI,[35],> 100 µM
same,TGI,[36],> 100 µM
same,TGI,[37],> 100 µM
same,TGI,[38],> 100 µM
same,TGI,[39],> 100 µM
same,TGI,[40],> 100 µM
same,TGI,[41],> 100 µM
same,TGI,[42],> 100 µM
same,TGI,[43],> 100 µM
same,TGI,[44],> 100 µM
same,TGI,[45],> 100 µM
same,TGI,[46],> 100 µM
same,TGI,[47],> 100 µM
same,TGI,[48],> 100 µM
same,TGI,[49],> 100 µM
same,TGI,[50],> 100 µM
same,TGI,[51],> 100 µM
COc1c2c(c(CC=C(C)C)c3oc(=O)c(-c4ccc(O)cc4)c(O)c13)OC(C)(C)C=C2,TGI,[1],86.2 µM
same,TGI,[2],> 100 µM
same,TGI,[3],75.3 µM
same,TGI,[4],> 100 µM
same,TGI,[52],12.4 µM
same,TGI,[5],> 100 µM
same,TGI,[53],68.4 µM
same,TGI,[6],> 100 µM
same,TGI,[7],> 100 µM
same,TGI,[8],95.8 µM
same,TGI,[9],91 µM
same,TGI,[10],58.7 µM
same,TGI,[11],> 100 µM
same,TGI,[12],> 100 µM
same,TGI,[13],45.7 µM
same,TGI,[54],70.2 µM
same,TGI,[14],40.2 µM
same,TGI,[15],44.9 µM
same,TGI,[55],> 100 µM
same,TGI,[16],> 100 µM
same,TGI,[56],> 100 µM
same,TGI,[17],37.5 µM
same,TGI,[18],58 µM
same,TGI,[57],51 µM
same,TGI,[19],62.9 µM
same,TGI,[21],54.3 µM
same,TGI,[22],> 100 µM
same,TGI,[23],93.7 µM
same,TGI,[24],> 100 µM
same,TGI,[26],76.8 µM
same,TGI,[27],41 µM
same,TGI,[28],> 100 µM
same,TGI,[58],52.8 µM
same,TGI,[29],> 100 µM
same,TGI,[30],35 µM
same,TGI,[31],62 µM
same,TGI,[32],48.1 µM
same,TGI,[33],> 100 µM
same,TGI,[34],79.9 µM
same,TGI,[35],> 100 µM
same,TGI,[36],> 100 µM
same,TGI,[37],65 µM
same,TGI,[38],> 100 µM
same,TGI,[39],73 µM
same,TGI,[40],46.6 µM
same,TGI,[41],> 100 µM
same,TGI,[42],73.3 µM
same,TGI,[43],27.8 µM
same,TGI,[44],25.8 µM
same,TGI,[45],> 100 µM
same,TGI,[46],60.7 µM
same,TGI,[47],32.8 µM
same,TGI,[48],71.3 µM
same,TGI,[49],> 100 µM
same,TGI,[50],67.2 µM
same,TGI,[51],92.7 µM
